molecular target: HCV RdRp (NS5B) (UniProt P26663); format: biochemical, hepatitis C virus
Sequence (P26663 whole entry, looked up): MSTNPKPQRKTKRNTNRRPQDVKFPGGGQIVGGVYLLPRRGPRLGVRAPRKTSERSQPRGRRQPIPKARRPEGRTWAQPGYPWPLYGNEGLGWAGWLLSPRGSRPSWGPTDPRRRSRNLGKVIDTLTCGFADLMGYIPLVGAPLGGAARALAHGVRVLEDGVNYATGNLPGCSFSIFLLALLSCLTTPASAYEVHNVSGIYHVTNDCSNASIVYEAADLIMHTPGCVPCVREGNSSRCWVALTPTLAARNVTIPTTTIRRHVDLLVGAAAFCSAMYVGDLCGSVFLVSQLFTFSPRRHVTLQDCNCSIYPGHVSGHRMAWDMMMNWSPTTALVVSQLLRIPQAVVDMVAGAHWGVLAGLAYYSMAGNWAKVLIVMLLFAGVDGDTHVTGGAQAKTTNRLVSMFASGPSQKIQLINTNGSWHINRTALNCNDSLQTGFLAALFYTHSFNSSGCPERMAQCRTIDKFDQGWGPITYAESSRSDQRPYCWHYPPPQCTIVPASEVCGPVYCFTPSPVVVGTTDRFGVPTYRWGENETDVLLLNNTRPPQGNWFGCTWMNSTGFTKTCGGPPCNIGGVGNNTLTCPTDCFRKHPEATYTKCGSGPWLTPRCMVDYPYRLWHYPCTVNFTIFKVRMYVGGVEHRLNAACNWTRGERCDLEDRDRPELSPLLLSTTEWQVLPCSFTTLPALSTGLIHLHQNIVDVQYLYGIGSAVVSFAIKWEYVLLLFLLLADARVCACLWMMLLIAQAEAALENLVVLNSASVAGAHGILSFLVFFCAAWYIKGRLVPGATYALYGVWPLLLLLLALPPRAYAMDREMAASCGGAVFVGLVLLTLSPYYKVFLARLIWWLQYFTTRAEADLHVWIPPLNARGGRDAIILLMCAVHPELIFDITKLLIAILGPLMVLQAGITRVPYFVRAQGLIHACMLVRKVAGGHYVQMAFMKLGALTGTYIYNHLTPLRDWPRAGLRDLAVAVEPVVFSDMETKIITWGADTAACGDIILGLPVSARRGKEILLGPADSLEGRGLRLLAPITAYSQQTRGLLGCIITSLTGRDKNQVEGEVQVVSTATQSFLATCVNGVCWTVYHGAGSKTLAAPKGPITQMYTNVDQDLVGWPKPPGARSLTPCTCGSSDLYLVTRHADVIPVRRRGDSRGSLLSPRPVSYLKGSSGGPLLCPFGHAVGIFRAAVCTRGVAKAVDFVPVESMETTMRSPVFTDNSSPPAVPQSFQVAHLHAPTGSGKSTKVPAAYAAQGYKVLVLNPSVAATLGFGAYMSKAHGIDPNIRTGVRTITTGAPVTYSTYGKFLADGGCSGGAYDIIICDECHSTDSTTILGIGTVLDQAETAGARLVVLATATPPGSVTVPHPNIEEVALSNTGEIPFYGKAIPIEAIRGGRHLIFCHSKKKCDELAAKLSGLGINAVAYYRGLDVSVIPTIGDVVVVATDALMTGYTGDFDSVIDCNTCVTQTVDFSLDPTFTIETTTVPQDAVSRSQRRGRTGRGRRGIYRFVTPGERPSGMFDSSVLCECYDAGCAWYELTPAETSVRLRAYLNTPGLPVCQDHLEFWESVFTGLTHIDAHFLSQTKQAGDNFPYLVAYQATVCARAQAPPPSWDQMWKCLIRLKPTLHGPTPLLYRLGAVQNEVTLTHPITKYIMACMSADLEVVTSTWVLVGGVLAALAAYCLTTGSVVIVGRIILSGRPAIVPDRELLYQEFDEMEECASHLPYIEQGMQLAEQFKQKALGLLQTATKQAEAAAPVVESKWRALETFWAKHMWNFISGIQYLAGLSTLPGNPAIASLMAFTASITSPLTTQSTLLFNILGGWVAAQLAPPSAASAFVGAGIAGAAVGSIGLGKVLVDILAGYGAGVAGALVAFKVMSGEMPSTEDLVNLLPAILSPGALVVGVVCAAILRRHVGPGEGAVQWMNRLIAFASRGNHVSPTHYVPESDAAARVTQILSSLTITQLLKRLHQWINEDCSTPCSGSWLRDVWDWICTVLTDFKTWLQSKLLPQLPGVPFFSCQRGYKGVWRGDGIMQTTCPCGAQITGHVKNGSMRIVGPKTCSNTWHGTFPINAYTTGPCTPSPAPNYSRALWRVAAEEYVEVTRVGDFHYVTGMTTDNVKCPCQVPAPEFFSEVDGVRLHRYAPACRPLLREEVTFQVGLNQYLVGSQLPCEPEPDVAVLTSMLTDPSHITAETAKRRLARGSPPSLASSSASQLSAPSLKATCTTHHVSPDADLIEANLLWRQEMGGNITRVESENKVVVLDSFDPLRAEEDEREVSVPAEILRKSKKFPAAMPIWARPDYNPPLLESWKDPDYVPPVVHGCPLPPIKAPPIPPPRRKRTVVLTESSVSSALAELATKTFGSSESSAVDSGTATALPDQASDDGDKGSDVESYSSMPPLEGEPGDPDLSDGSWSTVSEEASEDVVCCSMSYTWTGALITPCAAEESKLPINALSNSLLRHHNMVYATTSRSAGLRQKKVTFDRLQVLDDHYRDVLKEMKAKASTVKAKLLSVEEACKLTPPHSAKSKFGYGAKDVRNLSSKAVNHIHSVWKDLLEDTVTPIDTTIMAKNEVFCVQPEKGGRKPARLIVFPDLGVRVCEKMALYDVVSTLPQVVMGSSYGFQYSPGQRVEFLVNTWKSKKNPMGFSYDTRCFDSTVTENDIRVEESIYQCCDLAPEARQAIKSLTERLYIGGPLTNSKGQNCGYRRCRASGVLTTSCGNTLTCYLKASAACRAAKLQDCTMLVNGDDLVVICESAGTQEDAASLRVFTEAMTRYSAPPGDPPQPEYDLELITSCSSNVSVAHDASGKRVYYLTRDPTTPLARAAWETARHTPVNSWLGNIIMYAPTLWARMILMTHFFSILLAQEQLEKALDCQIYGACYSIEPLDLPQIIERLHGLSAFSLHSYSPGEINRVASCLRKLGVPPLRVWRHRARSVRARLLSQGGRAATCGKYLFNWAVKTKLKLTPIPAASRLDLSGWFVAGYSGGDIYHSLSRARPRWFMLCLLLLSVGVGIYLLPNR

First: Cc1ccc(NC(=O)[C@H](CCCCN)NC(=O)Nc2ccc(OCc3cccc(F)c3F)cc2)cc1 [Compound 284, (S)-6-AMINO-2-{3-[4-(2,3-DIFLUORO-BENZYLOXY)-PHENYL]-UREIDO}-HEXANOIC ACID P-TOLYLAMIDE]
Second: Cc1ccc(NC(=O)C(CCCCN)NC(=O)Nc2ccc(C=Cc3ccccc3)cc2)cc1 [Compound 236, (S)-6-AMINO-2-[3-(4-STYRYL-PHENYL)-UREIDO]-HEXANOIC ACID P-TOLYLAMIDE]
The IC50 of the first is higher: 10 to 50 µM for the first, under 10 µM for the second.

Compared with `CC(C)(C)c1ccc(NC(=O)[C@H](CCCCN)NC(=O)OCC2c3ccccc3-c3ccccc32)cc1` [Compound 105, (S)-[5-AMINO-1-(4-TERT-BUTYL-PHENYLCARBAMOYL)-PENTYL]-CARBAMIC ACID 9H-FLUOREN-9-YLMETHYL ESTER], `Cc1ccc(NC(=O)C(CCCCCN)NC(=O)OCC2c3ccccc3-c3ccccc32)cc1` [Compound 104, (S)-(6-AMINO-1-P-TOLYLCARBAMOYL-HEXYL)-CARBAMIC ACID 9H-FLUOREN-9-YLMETHYL ESTER] is lower in IC50: 10 to 50 µM for the first, under 10 µM for the second. The second is the more potent here.

`Cc1ccc(N(C)C(=O)C(CCCCN)NC(=O)OCC2c3ccccc3-c3ccccc32)cc1` [Compound 92, (S)-[5-AMINO-1-(METHYL-P-TOLYL-CARBAMOYL)-PENTYL]-CARBAMIC ACID 9H-FLUOREN-9-YLMETHYL ESTER] and `CSCCC(NC(=O)OCC1c2ccccc2-c2ccccc21)C(=O)Nc1ccc(C)cc1` (stereo not shown) [Compound 112] cannot be ordered by IC50: over 50 µM for the first, over 50 µM for the second.

`Cc1ccc(NC(=O)[C@H](CCCCN)NC(=O)COc2ccccc2)cc1` [Compound 328, (S)-^6-AMINO-^2-(^2-PHENOXY-ACETYLAMINO)-HEXANOIC ACID P-TOLYLAMIDE] and `Cc1ccc(NC(=O)[C@@H](CCCCN)NC(=O)NCc2ccc(Cl)c(Cl)c2)cc1` [Compound 170, (R)-6-AMINO-2-[3-(3,4-DICHLORO-BENZYL)-UREIDO]-HEXANOIC ACID P-TOLYLAMIDE] cannot be ordered by IC50: over 50 µM for the first, over 50 µM for the second.

`NCCCC[C@H](NC(=O)Nc1ccc(OCc2ccccc2)cc1)C(=O)Nc1cccc2cc[nH]c12` [Compound 307, (S)-6-AMINO-2-[3-(4-BENZYLOXY-PHENYL)-UREIDO]-HEXANOIC ACID (1H-INDOL-7-YL)-AMIDE] and `Cc1cc2cc(NC(=O)[C@H](CCCNC(=O)CN)NC(=O)Nc3ccc(OCc4ccccc4)cc3)ccc2[nH]1` [Compound 296, (S)-5-(2-AMINO-ACETYLAMINO)-2-[3-(4-BENZYLOXY-PHENYL)-UREIDO]-PENTANOIC ACID (2-METHYL-1H-INDOL-5-YL)-AMIDE] fall in the same range of IC50: 10 to 50 µM for the first, 10 to 50 µM for the second.

`Cc1ccc(NC(=O)C(CCCCN)NS(=O)(=O)c2ccc(C(F)(F)F)cc2)cc1` [Compound 397, (S)-6-AMINO-2-(4-TRIFLUOROMETHYL-BENZENESULFONYLAMINO)-HEXANOIC ACID P-TOLYLAMIDE] and `Cc1ccc(NC(=O)C(CCCN)NC(=O)Nc2ccc(-c3ccccc3)cc2)cc1` [Compound 191, (R)-5-AMINO-2-(3-BIPHENYL-4-YL-UREIDO)-PENTANOIC ACID P-TOLYLAMIDE] cannot be ordered by IC50: over 50 µM for the first, over 50 µM for the second.

Compared with `CN1CCN(C(=O)[C@H](CCCCN)NC(=O)Nc2ccc(OCc3ccccc3)cc2)CC1` [Compound 289, (S)-1-[5-AMINO-1-(4-METHYL-PIPERAZINE-1-CARBONYL)-PENTYL]-3-(4-BENZYLOXY-PHENYL)-UREA], `NCCCC[C@@H](NC(=O)NCc1ccccc1)C(=O)Nc1ccc(C2CCCCC2)cc1` [Compound 141, (R)-6-AMINO-2-(3-BENZYL-UREIDO)-HEXANOIC ACID (4-CYCLOHEXYL-PHENYL)-AMIDE] is lower in IC50: over 50 µM for the first, under 10 µM for the second.

`Cc1ccc(NC(=O)CC2CN(C(=O)CCN)CCN2C(=O)OCC2c3ccccc3-c3ccccc32)cc1` (stereo not shown) [Compound 183, 4-(3-AMINO-PROPIONYL)-2-(P-TOLYLCARBAMOYL-METHYL)-PIPERAZINE-1-CARBOXYLIC ACID 9H-FLUOREN-9-YLMETHYL ESTER] and `CC(C)(C)c1ccc(NC(=O)CN(CCCCN)C(=O)Nc2ccc(OCc3ccccc3)cc2)cc1` [Compound 282, 2-[1-(4-AMINO-BUTYL)-3-(4-BENZYLOXY-PHENYL)-UREIDO]-N-(4-TERT-BUTYL-PHENYL)-ACETAMIDE] cannot be ordered by IC50: over 50 µM for the first, over 50 µM for the second.
